Molecules are shown by their SMILES.

A word on the IC50: it is the point on the concentration scale where inhibition reaches its midpoint. High values mean weaker potency, low ones greater potency. As a reminder, the melting point is the temperature, or range, at which the solid turns liquid.

One data set concerns the target T1, human 11β-HSD1 (Homo sapiens, UniProt P28845).
T1 construct: the full-length cDNAs of human or marine 11β-HSD1 and 11β-HSD2 were isolated from the cDNA libraries; made in house; host or cells: HEK-293 (stably transfected, pcDNA3); microsomal fraction
In words: Inhibition of human 11β-HSD1, SPA with microsomes from transfected HEK-293 cells. The class given is biochemical. To be noted: for IC50: microsomes, NADPH, [3H]cortisone, n = 2; for Human HSD2/HSD1: selectivity ratio IC50 human 11β-HSD2 / human 11β-HSD1. The source says: (§1) Glucocorticoid hormones play important roles in many biological and physiological processes, including regulation of energy metabolism; inflammatory, immune and stress responses; and cardiovascular homeostasis. The action of glucocorticoid on target tissue is not inevitable dependent on the circulating levels, but is regulated in a tissue-specific manner by the 11β-hydroxysteroid dehydrogenase enzymes (11β-HSD1 and 11β-HSD2), which catalyze the interconversion of active 11-hydroxyglucocorticoids (cortisol in human and corticosterone in rodent) and their respective inert 11-keto forms (cortisone in human and 11-dehyfrocorticosterone in rodent). […] 11β-HSD2 is predominantly expressed in aldosterone target cells such as kidney and colon, where it catalyses the inactivation of glucocorticoids, thereby preventing excessive activation of the mineralocorticoid receptor and sequelae including sodium retention, hypokalemia, and hypertension. We tested the inhibitory effect of compounds on both human and mouse 11β-HSD1 and 11β-HSD2. All tests were done duplicate with glycyrrhizininc acid (human and mouse 11β-HSD1, human 11β-HSD2) and carbenoxolone (mouse 11β-HSD2) as positive control. IC50 (X […] S.D., n = 2) values were calculated by using Prism Version 4 (GraphPad Software, San Diego, CA, USA.).
(§2) Inhibition of compounds on human or mouse 11β-HSD1 and 11β-HSD2 enzymatic activities were determined by the scintillation proxitimity assay (SPA) using microsomes containing 11β-HSD1 or 11β-HSD2 according to the previous studies. Briefly the full-length cDNAs of human or marine 11β-HSD1 and 11β-HSD2 were isolated from the cDNA libraries provided by NIH Mammalian Gene Collection and cloned into pcDNA3 expression vector. HEK-293 cells were transfected with the pcDNA3-dericed expression plasmid and selected by cultivation in the presence of 700 μg/mL of G418. The microsomal fraction overexpressing 11β-HSD1 or 11β-HSD2 was prepared from the HEK-293 cells stable transfected with either 11β-HSD1 or 11β-HSD2 and used as the enzyme source for SPA. Microsomes containing human or mouse 11β-HSD1 was incubated with NADPH and [3H]cortisone, then the product, [3H]cortisol was specifically captured by a monoclonal antibody coupled to protein A-coated SPA beads. The 11β-HSD2 screening was performed by incubating 11β-HSD2 microsomes with [3H]cortisol and NAD^+ and monitoring substrate disappearance. IC50 (X ± S.D., n = 2) values were calculated by using Prism Version 4 (GraphPad Software, San Diego, CA, USA.) with glycyrrhizininc acid and carbenoxolone as positive control.

Another data set addresses T2, mouse 11β-HSD2 (Mus musculus, UniProt P51661).
T2 construct: the full-length cDNAs of human or marine 11β-HSD1 and 11β-HSD2 were isolated from the cDNA libraries; made in house; host or cells: HEK-293 (stably transfected, pcDNA3); microsomal fraction
T2 sequence (P51661 1-386): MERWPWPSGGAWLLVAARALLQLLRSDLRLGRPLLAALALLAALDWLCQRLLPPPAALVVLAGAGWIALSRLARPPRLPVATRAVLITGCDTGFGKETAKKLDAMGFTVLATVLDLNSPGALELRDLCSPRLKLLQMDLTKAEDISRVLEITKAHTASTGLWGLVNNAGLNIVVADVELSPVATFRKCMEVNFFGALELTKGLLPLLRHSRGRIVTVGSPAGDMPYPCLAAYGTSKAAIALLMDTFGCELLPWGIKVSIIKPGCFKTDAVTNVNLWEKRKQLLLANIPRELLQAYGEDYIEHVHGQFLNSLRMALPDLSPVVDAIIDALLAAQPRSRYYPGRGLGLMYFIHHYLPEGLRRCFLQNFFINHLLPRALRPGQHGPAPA
The experiment in a line: Inhibition of mouse 11β-HSD2, SPA with microsomes from transfected HEK-293 cells. The class given is biochemical. To be noted: [3H]cortisol, NAD+, n = 2.
From the text: as §1, §2

The target in the next data set is T3, human 11β-HSD2 (Homo sapiens, UniProt P80365).
T3 construct: the full-length cDNAs of human or marine 11β-HSD1 and 11β-HSD2 were isolated from the cDNA libraries; made in house; host or cells: HEK-293 (stably transfected, pcDNA3); microsomal fraction
T3 sequence (P80365 1-405): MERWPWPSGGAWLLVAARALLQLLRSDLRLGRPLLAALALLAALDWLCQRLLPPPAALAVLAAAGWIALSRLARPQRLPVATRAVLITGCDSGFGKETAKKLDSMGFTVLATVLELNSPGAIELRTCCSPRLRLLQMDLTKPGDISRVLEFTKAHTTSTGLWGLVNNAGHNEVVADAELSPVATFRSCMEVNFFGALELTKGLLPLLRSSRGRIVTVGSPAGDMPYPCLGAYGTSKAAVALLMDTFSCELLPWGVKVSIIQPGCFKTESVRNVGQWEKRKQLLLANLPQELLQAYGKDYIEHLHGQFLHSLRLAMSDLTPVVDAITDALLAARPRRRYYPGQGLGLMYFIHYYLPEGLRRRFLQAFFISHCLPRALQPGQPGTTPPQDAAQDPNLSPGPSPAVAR
In words: Inhibition of human 11β-HSD2, SPA with microsomes from transfected HEK-293 cells. The class given is biochemical. To be noted: [3H]cortisol, NAD+, n = 2.
From the text: as §1, §2

For the next data set, the target named is T4, mouse 11β-HSD1 (Mus musculus, UniProt P50172).
T4 construct: the full-length cDNAs of human or marine 11β-HSD1 and 11β-HSD2 were isolated from the cDNA libraries; made in house; host or cells: HEK-293 (stably transfected, pcDNA3); microsomal fraction
T4 sequence (P50172 whole entry): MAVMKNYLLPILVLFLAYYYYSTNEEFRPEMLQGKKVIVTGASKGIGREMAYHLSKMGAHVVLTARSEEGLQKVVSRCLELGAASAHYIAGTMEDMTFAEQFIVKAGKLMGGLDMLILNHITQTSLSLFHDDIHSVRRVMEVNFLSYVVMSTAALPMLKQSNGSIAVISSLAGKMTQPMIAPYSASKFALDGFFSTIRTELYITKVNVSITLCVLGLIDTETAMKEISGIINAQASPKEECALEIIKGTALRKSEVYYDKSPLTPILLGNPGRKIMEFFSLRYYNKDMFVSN
The experiment in a line: Inhibition of mouse 11β-HSD1, scintillation proximity assay (SPA) with microsomes from transfected HEK-293 cells. The class given is biochemical. To be noted: for IC50: microsomes, NADPH, [3H]cortisone, n = 2; for Mouse HSD2/HSD1: selectivity ratio IC50 mouse 11β-HSD2 / mouse 11β-HSD1.
From the text: as §1, §2
Background: Scintillation proximity formats need no separation of bound from free tracer.

T1 sequence (P28845 whole entry): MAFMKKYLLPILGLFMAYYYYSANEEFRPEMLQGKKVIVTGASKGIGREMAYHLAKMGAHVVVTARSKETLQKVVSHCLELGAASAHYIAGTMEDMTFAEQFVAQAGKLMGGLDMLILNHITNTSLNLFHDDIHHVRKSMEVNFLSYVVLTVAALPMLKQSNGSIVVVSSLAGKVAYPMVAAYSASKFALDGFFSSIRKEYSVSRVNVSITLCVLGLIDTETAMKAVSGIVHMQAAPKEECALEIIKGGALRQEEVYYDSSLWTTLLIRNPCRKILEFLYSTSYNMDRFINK

For `CC(C)=CCC[C@@H](C)[C@@H]1CC[C@]2(C)C(=O)[C@]3(CC[C@@]12C)[C@@H](O)CC1C(C)(C)[C@@H](O)CC[C@@]13C` (stereo partly shown) [Compound 2, Kansuinone], the IC50 on human 11β-HSD1 is 1110 nM; against mouse 11β-HSD2, over 1 mM; against human 11β-HSD2, 2630 nM; against mouse 11β-HSD1 it was 1080 nM. The “Human HSD2/HSD1” value on human 11β-HSD1 is reported as 2.35. For the same compound, the “Mouse HSD2/HSD1” value at mouse 11β-HSD1 is recorded as over 928.
Turning to `C=C(CC[C@](C)(O)[C@@H]1CC[C@]2(C)C3CCC4C(C)(C)[C@@H](O)CC[C@]4(C)C3CC[C@@]12C)C(C)C` (stereo partly drawn) [Compound 1, Euphane-3β,20-dihydroxy-24-ene], the IC50 was 34.9 nM on human 11β-HSD1, over 1 mM on mouse 11β-HSD2, 8180 nM against human 11β-HSD2 and 78.4 nM against mouse 11β-HSD1. Moreover, the “Human HSD2/HSD1” value at human 11β-HSD1 amounted to 234.6. On mouse 11β-HSD1, the “Mouse HSD2/HSD1” value was over 12748.
In the case of `CC(C)=CCC[C@@H](C)[C@@H]1CC[C@]2(C)C3=C(CC[C@@]12C)[C@@]1(C)CC[C@H](O)C(C)(C)[C@@H]1CC3` [Compound 3, Euphol], the IC50 was 16.1 nM against human 11β-HSD1, over 1 mM against mouse 11β-HSD2, 395 nM against human 11β-HSD2 and 80.5 nM on mouse 11β-HSD1. Further, the “Human HSD2/HSD1” value at human 11β-HSD1 was found to be 24.6. In addition, on mouse 11β-HSD1, the “Mouse HSD2/HSD1” value is over 12419.
For `CC(C)=CCCC(C)C1CCC2(C)C3=C(CCC12C)C1(C)CCC(O)C(C)(C)C1CC3=O` (stereo not shown) [Compound 4, Kansenone], the IC50 at human 11β-HSD1 was 2.81 nM; against mouse 11β-HSD2, over 1 mM; against human 11β-HSD2, 107 nM; against mouse 11β-HSD1, 13.4 nM. Also, on human 11β-HSD1, the “Human HSD2/HSD1” value was 38. In addition, at mouse 11β-HSD1, the “Mouse HSD2/HSD1” value is reported as over 74850.
In the case of `C[C@H](C/C=C/C(C)(C)O)[C@@H]1CC[C@]2(C)C3=C(CC[C@@]12C)[C@@]1(C)CC[C@H](O)C(C)(C)C1CC3` (stereo partly drawn) [Compound 6, (20R,23E)-Eupha-8,23-diene-3β,25-diol], the melting point is 132 to 133 °C. For the same compound, at human 11β-HSD1, the concentration for half-maximal inhibition (IC50) is 16 nM and the “Human HSD2/HSD1” value was determined as 41.7. At mouse 11β-HSD2, this compound gave an IC50 of over 1 mM. Also, at human 11β-HSD2, inhibition was half-maximal at 666 nM (IC50). At mouse 11β-HSD1, the IC50 worked out at 295 nM and the “Mouse HSD2/HSD1” value is listed as over 3393.
`C=C(C)[C@@H](O)CC[C@@H](C)[C@@H]1CC[C@]2(C)C3=C(CC[C@@]12C)[C@@]1(C)CC[C@H](O)C(C)(C)C1CC3` (stereo partly drawn) [Compound 5, (24R)-Eupha-8,25-diene-3β,24-diol]: the IC50 was 26.5 nM against human 11β-HSD1, over 1 mM at mouse 11β-HSD2, 1690 nM against human 11β-HSD2 and 49.5 nM on mouse 11β-HSD1. Also, the “Human HSD2/HSD1” value at human 11β-HSD1 is listed as 63.7. Also, at mouse 11β-HSD1, the “Mouse HSD2/HSD1” value is listed as over 20218.

These data come from PMC6268726, “Inhibition of 11β-HSD1 by Tetracyclic Triterpenoids from Euphorbia kansui” (Molecules, 2012).
